Results reported in patent publication US11299478B2, “2-cyanopyrimidin-4-yl carbamate or urea derivative or salt thereof, and pharmaceutical composition including same” (HANLIM PHARMACEUTICAL CO., LTD., priority 2018, dated 2022).

Columns and labels:
Type in all cases: biochemical
cathepsin L = cathepsin L (Homo sapiens, UniProt P07711); assay: Inhibitory activity assay against cathepsin L (enzyme assay); settings: Z-Phe-Arg-AMC 2 μM, enzyme 3 nM, pH 5.5, 30 minutes
In short: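 IC50s came from 4-parameter logistic fits of ten concentrations (10.0 μM down to 0.000508 μM). Reaction: 30 min, 3 nM enzyme, 2 μM Z-Phe-Arg-AMC, pH 5.5 MES buffer containing DTT, EDTA, Polysorbate 20 and 10% DMSO; fluorescence read 340/460 nm.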

cathepsin K = molecular target: T1, cathepsin K (Homo sapiens, UniProt P43235); assay: Inhibitory activity assay against cathepsin K (enzyme assay); settings: Z-Phe-Arg-AMC 10 μM, enzyme 1 nM, pH 5.5, 30 minutes
T1 sequence (P43235 115-329): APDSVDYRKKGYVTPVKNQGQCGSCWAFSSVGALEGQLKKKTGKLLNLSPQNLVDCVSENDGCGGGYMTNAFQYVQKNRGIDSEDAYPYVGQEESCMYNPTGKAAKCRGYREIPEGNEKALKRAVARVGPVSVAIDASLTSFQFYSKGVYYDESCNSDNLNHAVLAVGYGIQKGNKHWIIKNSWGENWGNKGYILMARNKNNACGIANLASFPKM
In short: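 IC50 by 4-parameter logistic fit of fluorescence (ex 355 nm, em 460 nm) after 30 min reaction. Compound tested at 10 final concentrations from 10.0 μM down to 0.000508 μM against 1 nM enzyme and 10 μM Z-Phe-Arg-AMC, in MES buffer pH 5.5 with DTT, EDTA, Triton X-100 and 10% DMSO.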

cathepsin S = cathepsin S (Homo sapiens, UniProt P25774); assay: Inhibitory activity assay against cathepsin S (enzyme assay); settings: Z-Phe-Arg-AMC 70 μM, enzyme 3 nM, pH 6.5, 45 minutes
In short: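 Ten-point compound titration (10.0 to 0.000508 μM final) reacted 45 min with 3 nM cathepsin S and 70 μM Z-Phe-Arg-AMC in MES 50 mM pH 6.5, DTT 2.5 mM, EDTA 1.0 mM, BSA 0.001%, DMSO 10%. AMC release read at 340/460 nm; IC50 from four-parameter logistic fit.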

cathepsin B = cathepsin B (Homo sapiens, UniProt P07858); assay: Inhibitory activity assay against cathepsin B (enzyme assay); settings: Z-Arg-Arg-AMC 40 μM, enzyme 1 nM, pH 6.0, 90 minutes
In short: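 Reaction run 90 min in MES buffer pH 6.0 containing DTT, EDTA, Polysorbate 20 and 10% DMSO, using 40 μM fluorogenic Z-Arg-Arg-AMC and 1 nM cathepsin B. Ten compound levels from 10.0 μM; AMC fluorescence at ex 340/em 460 nm fitted to a 4-parameter logistic for IC50.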

cathepsin S, sequence (P25774 115-331, species assumed): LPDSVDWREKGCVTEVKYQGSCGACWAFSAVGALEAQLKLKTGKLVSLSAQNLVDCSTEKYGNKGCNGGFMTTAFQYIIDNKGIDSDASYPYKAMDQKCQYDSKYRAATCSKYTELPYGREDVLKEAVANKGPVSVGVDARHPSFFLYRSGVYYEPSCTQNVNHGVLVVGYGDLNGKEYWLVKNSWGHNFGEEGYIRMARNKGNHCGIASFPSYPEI
cathepsin L, sequence (P07711 114-333, species assumed): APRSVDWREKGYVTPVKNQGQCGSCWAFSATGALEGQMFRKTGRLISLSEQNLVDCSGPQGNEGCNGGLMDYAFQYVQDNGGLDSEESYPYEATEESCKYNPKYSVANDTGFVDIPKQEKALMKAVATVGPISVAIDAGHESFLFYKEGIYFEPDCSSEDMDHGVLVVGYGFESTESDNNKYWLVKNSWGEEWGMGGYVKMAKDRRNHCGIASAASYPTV

IC50 (cathepsin L)	IC50 (cathepsin K)	IC50 (cathepsin S)	IC50 (cathepsin B)	SMILES
> 10000 nM	4.9 nM	> 10000 nM	> 10000 nM	CC(=O)Nc1ccc(-c2ccc(NC(=O)NC3(c4ccnc(C#N)n4)CCCCC3)cc2)cc1 [Example 129, N-(4′-(3-(1-(2-cyanopyrimidin-4-yl)cyclohexyl)ureido)-[1,1′-biphenyl]-4-yl)acetamide]
> 10000 nM	71.5 nM	> 10000 nM	> 10000 nM	N#Cc1nccc(C2(NC(=O)Nc3cccc(-c4ccccc4)c3)CCCCC2)n1 [Example 111, 1-([1,1′-biphenyl]-3-yl)-3-(1-(2-cyanopyrimidin-4-yl)cyclohexyl)urea]
898 nM	3.6 nM	6260 nM	> 10000 nM	Cc1ccc(C)c(NC(=O)NC2(c3ccnc(C#N)n3)CCCCC2)c1 [Example 87, 1-(1-(2-cyanopyrimidin-4-yl)cyclohexyl)-3-(2,5-dimethylphenyl)urea]
> 10000 nM	18.5 nM	> 10000 nM	> 10000 nM	N#Cc1nccc(C2(NC(=O)Nc3ccc(Oc4ccccc4)cc3)CCCC2)n1 [Example 44, 1-(1-(2-cyanopyrimidin-4-yl)cyclopentyl)-3-(4-phenoxyphenyl)urea]
2270 nM	6.9 nM	9850 nM	> 10000 nM	N#Cc1nccc(C2(NC(=O)Nc3cc(C(F)(F)F)ccc3CO)CCCCC2)n1 [Example 108, 1-(1-(2-cyanopyrimidin-4-yl)cyclohexyl)-3-(2-(hydroxymethyl)-5-(trifluoromethyl)phenyl)urea]
> 10000 nM	934 nM	> 10000 nM	> 10000 nM	N#Cc1nccc(C2(NC(=O)OCc3ccc(-c4ccc(N5CCOCC5)cc4)cc3)CCCC2)n1 [Example 31, (4′-morpholino-[1,1′-biphenyl]-4-yl)methyl (1-(2-cyanopyrimidin-4-yl)cyclopentyl)carbamate]
> 10000 nM	16.8 nM	8580 nM	> 10000 nM	N#Cc1nccc(C2(NC(=O)Nc3ccc(-c4ccc(S(=O)(=O)NC5CC5)cc4)cc3)CCCCC2)n1 [Example 148, 4′-(3-(1-(2-cyanopyrimidin-4-yl)cyclohexyl)ureido)-N-cyclopropyl-[1,1′-biphenyl]-4-sulfonamide]
1060 nM	18 nM	5850 nM	> 10000 nM	N#Cc1nccc(C2(NC(=O)OCc3ccccc3Br)CCCCC2)n1 [Example 19, 2-bromobenzyl (1-(2-cyanopyrimidin-4-yl)cyclohexyl)carbamate]
> 10000 nM	37.2 nM	> 10000 nM	> 10000 nM	Cc1ccc(COC(=O)NC2(c3ccnc(C#N)n3)CCCCC2)cc1 [Example 22, 4-methylbenzyl (1-(2-cyanopyrimidin-4-yl)cyclohexyl)carbamate]
> 10000 nM	49.6 nM	> 10000 nM	> 10000 nM	Cc1ccc(CNC(=O)NC2(c3ccnc(C#N)n3)CCCC2)cc1 [Example 48, 1-(1-(2-cyanopyrimidin-4-yl)cyclopentyl)-3-(4-methylbenzyl)urea]
> 10000 nM	21.6 nM	> 10000 nM	8780 nM	N#Cc1nccc(C2(NC(=O)Nc3cccc(C(F)(F)F)c3)CCCC2)n1 [Example 60, 1-(1-(2-cyanopyrimidin-4-yl)cyclopentyl)-3-(3-(trifluoromethyl)phenyl)urea]
> 10000 nM	37.9 nM	> 10000 nM	> 10000 nM	N#Cc1nccc(C2(NC(=O)OCc3ccc(C(F)(F)F)cc3)CCCCC2)n1 [Example 24, 4-(trifluoromethyl)benzyl (1-(2-cyanopyrimidin-4-yl)cyclohexyl)carbamate]
> 10000 nM	6.2 nM	4640 nM	> 10000 nM	CC(=O)Nc1ccc(-c2ccc(NC(=O)NC3(c4ccnc(C#N)n4)CCCCC3)cc2F)cc1 [Example 164, N-(4′-(3-(1-(2-cyanopyrimidin-4-yl)cyclohexyl)ureido)-2′-fluoro-[1,1′-biphenyl]-4-yl)acetamide]
> 10000 nM	1570 nM	> 10000 nM	> 10000 nM	CS(=O)(=O)c1ccc(-c2ccc(COC(=O)NC3(c4ccnc(C#N)n4)CCCC3)cc2)cc1 [Example 29, (4′-(methylsulfonyl)-[1,1′-biphenyl]-4-yl)methyl (1-(2-cyanopyrimidin-4-yl)cyclopentyl)carbamate]
5510 nM	75.9 nM	> 10000 nM	5890 nM	Cc1cccc(NC(=O)NC2(c3ccnc(C#N)n3)CCCC2)c1C [Example 64, 1-(1-(2-cyanopyrimidin-4-yl)cyclopentyl)-3-(2,3-dimethylphenyl)urea]
8920 nM	6.6 nM	> 10000 nM	> 10000 nM	N#Cc1nccc(C2(NC(=O)Nc3ccc(-c4ccc(C(=O)N5CCCC5)c(Cl)c4)cc3)CCCCC2)n1 [Example 150, 1-(3′-chloro-4′-(pyrrolidin-1-carbonyl)-[1,1′-biphenyl]-4-yl)-3-(1-(2-cyanopyrimidin-4-yl)cyclohexyl)urea]
1920 nM	11 nM	7620 nM	> 10000 nM	N#Cc1nccc(C2(NC(=O)Nc3cccc(Br)c3)CCCCC2)n1 [Example 109, 1-(3-bromophenyl)-3-(1-(2-cyanopyrimidin-4-yl)cyclohexyl)urea]
> 10000 nM	6.4 nM	7300 nM	> 10000 nM	N#Cc1nccc(C2(NC(=O)Nc3ccc(-c4ccc(C(=O)NC5CC5)cc4)cc3)CCCCC2)n1 [Example 149, 4′-(3-(1-(2-cyanopyrimidin-4-yl)cyclohexyl)ureido)-N-cyclopropyl-[1,1′-biphenyl]-4-carboxamide]
8180 nM	39.9 nM	> 10000 nM	> 10000 nM	N#Cc1nccc(C2(NC(=O)Nc3ccccc3)CCCC2)n1 [Example 41, 1-(1-(2-cyanopyrimidin-4-yl)cyclopentyl)-3-phenylurea]
> 10000 nM	6.6 nM	9430 nM	5650 nM	N#Cc1nccc(C2(NC(=O)Nc3ccc(-c4ccc(C(=O)NCC5CCCO5)cc4)cc3)CCCCC2)n1 (stereo not shown) [Example 158, 4′-(3-(1-(2-cyanopyrimidin-4-yl)cyclohexyl)ureido)-N-((tetrahydrofuran-2-yl)methyl)-[1,1′-biphenyl]-4-carboxamide]
> 10000 nM	0.1 nM	> 10000 nM	4760 nM	CNCCOc1ccc(-c2ccc(NC(=O)NC3(c4ccnc(C#N)n4)CCCCC3)cc2)cc1 [Example 191, 1-(1-(2-cyanopyrimidin-4-yl)cyclohexyl)-3-(4′-(2-(methylamino)ethoxy)-[1,1′-biphenyl]-4-yl)urea]
3440 nM	0.4 nM	5940 nM	2410 nM	CC(C)N1CCN(c2ccc(-c3ccc(NC(=O)NC4(c5ccnc(C#N)n5)CCCCC4)cc3F)cc2)CC1 [Example 166, 1-(1-(2-cyanopyrimidin-4-yl)cyclohexyl)-3-(2-fluoro-4′-(4-isopropylpiperazin-1-yl)-[1,1′-biphenyl]-4-yl)urea]
1420 nM	58.4 nM	> 10000 nM	> 10000 nM	Cc1ccccc1COC(=O)NC1(c2ccnc(C#N)n2)CCCCC1 [Example 17, 2-methylbenzyl (1-(2-cyanopyrimidin-4-yl)cyclohexyl)carbamate]
> 10000 nM	10.9 nM	> 10000 nM	> 10000 nM	CS(=O)(=O)Nc1ccc(-c2ccc(NC(=O)NC3(c4ccnc(C#N)n4)CCCCC3)cc2C(F)(F)F)cc1 [Example 180, N-(4′-(3-(1-(2-cyanopyrimidin-4-yl)cyclohexyl)ureido)-2′-(trifluoromethyl)-[1,1′-biphenyl]-4-yl)methanesulfonamide]
> 10000 nM	63.7 nM	> 10000 nM	> 10000 nM	N#Cc1nccc(C2(NC(=O)Nc3ccc(Br)c(C(F)(F)F)c3)CCCCC2)n1 [Example 133, 1-(4-bromo-3-(trifluoromethyl)phenyl)-3-(1-(2-cyanopyrimidin-4-yl)cyclohexyl)urea]
